Like-named read-outs stand apart in the source and are kept apart here.
Assays:
[1] = oral pharmacokinetics, statements pooled over mice, rats and monkeys; type: in vivo
Nrf2 target genes = assay: Nrf2 target gene expression in BEAS-2B bronchial epithelial cells; type: cell-based, human; conditions: 18 hours
[2] = test system: radiation-induced oral mucositis; assay: radiation-induced oral mucositis in hamsters
[3] = test system: acute radiation dermatitis; assay: acute radiation dermatitis model, BALB/c mice; type: in vivo, mouse
Description: Using male BALB/c mice, a 30 Gy dose of radiation was administered on day 0 (Table 3). […] The remaining mice were sacrificed on day 30 at 4 hours postdose. Plasma was collected on days 12 and 30 as well as irradiated skin samples for mRNA and histological examination. [table]

STAT3 phosphorylation = assay: IL-6-induced STAT3 phosphorylation in HeLa cells; type: cell-based, human; conditions: 1 μM, 6 hours pretreatment
Description: (§1) Osteoclastogenesis is a multi-step differentiation process that results from the binding of RANKL to its receptor, RANK, on cells of hematopoietic origin.

[4] = test system: IFNγ-induced NO production; assay: IFNγ-induced NO production in RAW264.7 macrophages (Griess reagent); type: cell-based; conditions: Mus musculus
Description: (§2) Inhibition of IFNγ-induced NO production by AIMs is Nrf2-dependent (Dinkova-Kostova, 2005). […] Nitrite (NO2^−) levels in the media were measured as a surrogate for nitric oxide using the Griess reagent assay. Cell viability was assessed using the WST-1 assay. […] 63170, 63171, 63179, and 63189 are compounds of the formulas: […]

CYP1A2 = assay: CYP450 induction in cultured human hepatocytes: CYP1A2; type: in vitro ADME; conditions: up to 3 μM
transaminase mRNA levels = assay: transaminase gene expression in AML-12 hepatocytes; type: cell-based, mouse; conditions: 250 nM or 500 nM, 18 hours
Description: One hypothesis for this effect is that AIMs directly or indirectly increase transaminase gene expression in the absence of cellular toxicity.

[5] = test system: fractionated radiation dermatitis; assay: fractionated radiation dermatitis model, Balb/c mice; type: in vivo, mouse; conditions: 0.1 to 1% topical formulations
Description: The mice were irradiated on days 0-2 and 5-7 with six 10-Gy doses […]. Clinical dermatitis scores for the mice were evaluated blindly every two days from day 4 until the end of the study. […] Study and treatment parameters can be found in Table 6.
By analyzing the average clinical scores that were shown in FIG. 43, an area under the curve (AUC) analysis was performed, which yielded the severity of the dermatitis relative to how long the dermatitis persisted.

cynomolgus monkeys = assay: cardiovascular evaluation in conscious cynomolgus monkeys (telemetry); type: in vivo, monkey
Description: Animals were instrumented with telemetry transmitters for measurement of body temperature, blood pressure, heart rate, and electrocardiogram (ECG) evaluation. Body temperature, systolic, diastolic, and mean arterial blood pressure, heart rate, and ECG parameters (QRS duration and RR, PR, and QT intervals) were monitored continuously from at least 2 hours pre-dose until at least 24 hours post-dose. ECG tracings were printed at designated time points from the cardiovascular monitoring data and were qualitatively evaluated by a board-certified veterinary cardiologist.
Observations for morbidity, mortality, injury, and availability of food and water were conducted at least twice daily for all animals. Clinical observations were conducted pre-dose, approximately 4 hours post-dose, and following completion of the cardiovascular monitoring period. Body weights were measured and recorded on the day prior to each treatment administration.

ocular inflammation = ocular inflammation after paracentesis in rabbits; type: in vivo, rabbit; conditions: 0.01% RTA 408 in the formulation
Description: Each rabbit was given three instillations within 60 minutes before induction of paracentesis and two instillations within 30 minutes after induction of paracentesis. Each instillation was 50 μL and given in both eyes. Aqueous humor for 6 animals per time-point was collected 30 minutes and again 2 hours after induction of paracentesis. The amount of inflammation was determined by protein concentration in the aqueous humor.

[6] = test system: RANKL-induced TRAP activity and formation of osteoclasts; assay: RANKL-induced osteoclastogenesis in RAW264.7; type: cell-based; conditions: Mus musculus, Osteoclast; 2 h pretreatment, 50 ng/mL RANKL
Description: as §1

[7] = test system: LPS-induced pulmonary inflammation
[8] = topical ocular administration pharmacokinetics in rabbits; type: in vivo, rabbit
Description: Using rabbits, the ocular absorption and systemic pharmacokinetic behavior of RTA 408 was evaluated.

RAW264.7 cells = assay: WST-1 cell viability, RAW264.7; type: cell-based; conditions: Mus musculus
Description: as §2

CD rats = assay: pulmonary evaluation in rats; type: in vivo, rat; conditions: doses up to and including 30 mg/kg, single oral dose
Description: One additional group of eight animals/sex served as the control and received vehicle (sesame oil).
Observations for mortality, morbidity, injury, and availability of food and water were conducted twice daily for all animals. Clinical observations were conducted prior to dosing, approximately 4 hours post-dose, and following completion of the 8-hour pulmonary monitoring period. […] Pulmonary function (respiratory rate, tidal volume, and minute volume) was monitored for at least 1 hour prior to dosing to establish a baseline and for at least 8 hours post-dose.

In the case of `CC1(C)CC[C@]2(NC(=O)C(C)(F)F)CC[C@]3(C)[C@H](C(=O)C=C4[C@@]5(C)C=C(C#N)C(=O)C(C)(C)[C@@H]5CC[C@]43C)[C@@H]2C1` [RTA 408, N-((4aS,6aR,6bS,8aR,12aS,14aR,14bS)-11-cyano-2,2,6a,6b,9,9,12a-heptamethyl-10,14-dioxo-1,2,3,4,4a,5,6,6a,6b,7,8,8a,9,10,12a,14,14a,14b-octadecahydropicen-4a-yl)-2,2-difluoropropanamide], the “dose dependence of systemic exposure” value ([1]; 3 to 100 mg/kg, suspension) is reported as “dose-proportional increases in systemic exposure”, the “exposure at higher doses” value ([1]; 100 to 800 mg/kg in monkeys, 500 to 2000 mg/kg in rats) is reported as “saturation of absorption at doses above 100 mg/kg” and the “systemic exposure by sex” value ([1]; in vivo) is reported as “generally similar in males and females”. The “exposure after repeated daily oral administration vs single dose” value ([1]; in vivo, po) was ≤ 2 fold, the “expression of Nrf2 target genes” value (Nrf2 target genes) was “dose-dependent increase of all Nrf2 target genes evaluated” and the “hamsters euthanized on Day 2 due to weight loss in excess of 20%” value ([2]; 100 mg/kg) was “two out of eight”. For the same compound, the “duration of ulcerative mucositis” value ([2]; 30 and 100 mg/kg) was “significant reduction”, the “percentage of animals with mucositis scores ≥3” value ([2]; hamster, in vivo) was “dose-dependent decrease” and the “percentage of mice with dermatitis clinical score above 3” value ([3]; oral administration) was “significantly lower”. The “Percentage of mice which scored above 2 in clinical dermatitis exam” value (“Percentage … in clinical dermatitis exam” below) ([3]; topical 0.01%, Day 12) was 0.0%, the “Percentage … in clinical dermatitis exam” value ([3]; topical 0.01%, Day 14) was 0.0% and the “Percentage … in clinical dermatitis exam” value ([3]; topical 0.01%, Day 16) was 20.0%. For the same compound, the “Percentage … in clinical dermatitis exam” value ([3]; topical 0.01%, Day 18) was 50.0%, the “Percentage … in clinical dermatitis exam” value ([3]; topical 0.01%, Day 20) was 10.0% and the “Percentage … in clinical dermatitis exam” value ([3]; topical 0.01%, Day 22) was 40.0%. The “Percentage … in clinical dermatitis exam” value ([3]; topical 0.01%, Day 24) was 40.0%, the “Percentage … in clinical dermatitis exam” value ([3]; topical 0.01%, Day 26) was 40.0% and the “Percentage … in clinical dermatitis exam” value ([3]; topical 0.01%, Day 28) was 20.0%. The “Percentage … in clinical dermatitis exam” value ([3]; topical 0.01%, Day 30) was 10.0%, the “Percentage … in clinical dermatitis exam” value ([3]; topical 0.1%, Day 12) was 7.1% and the “Percentage … in clinical dermatitis exam” value ([3]; topical 0.1%, Day 14) was 10.0%. For the same compound, the “Percentage … in clinical dermatitis exam” value ([3]; topical 0.1%, Day 16) was 20.0%, the “Percentage … in clinical dermatitis exam” value ([3]; topical 0.1%, Day 18) was 80.0% and the “Percentage … in clinical dermatitis exam” value ([3]; topical 0.1%, Day 20) was 60.0%. The “Percentage … in clinical dermatitis exam” value ([3]; topical 0.1%, Day 22) was 40.0%, the “Percentage … in clinical dermatitis exam” value ([3]; topical 0.1%, Day 24) was 30.0% and the “Percentage … in clinical dermatitis exam” value ([3]; topical 0.1%, Day 26) was 10.0%. The “Percentage … in clinical dermatitis exam” value ([3]; topical 0.1%, Day 28) was 0.0%, the “Percentage … in clinical dermatitis exam” value ([3]; topical 0.1%, Day 30) was 0.0% and the “Percentage … in clinical dermatitis exam” value ([3]; topical 1.0%, Day 14) was 20.0%. The “Percentage … in clinical dermatitis exam” value ([3]; topical 1.0%, Day 16) was 10.0%, the “Percentage … in clinical dermatitis exam” value ([3]; topical 1.0%, Day 18) was 70.0% and the “Percentage … in clinical dermatitis exam” value ([3]; topical 1.0%, Day 20) was 30.0%. The “Percentage … in clinical dermatitis exam” value ([3]; topical 1.0%, Day 22) was 10.0%, the “Percentage … in clinical dermatitis exam” value ([3]; topical 1.0%, Day 24) was 0.0% and the “Percentage … in clinical dermatitis exam” value ([3]; topical 1.0%, Day 26) was 0.0%. The “Percentage … in clinical dermatitis exam” value ([3]; topical 1.0%, Day 28) was 0.0%, the “Percentage … in clinical dermatitis exam” value ([3]; topical 1.0%, Day 30) was 0.0% and the “percentage of mice with dermatitis clinical score above 2” value ([3]; topical administration) was “slightly lower”. For the same compound, the “IL-6-induced phosphorylation of STAT3” value (STAT3 phosphorylation) was “inhibited phosphorylation of STAT3 induced by IL-6”, the IC50 ([4]; 2 h pre-treatment, 20 ng/mL IFNγ 24 h, read-out: IC50, suppression of IFNγ-induced NO production) was 3.8 ± 1.2 nM and the IC50 ([4]; Table 15, read-out: NO IC50 (nM), RAW264.7) was 4 ± 1 nM. For the same compound, the “induction of enzyme activity” value (CYP1A2) was “not an inducer”, the “alanine transaminase 1 (Alt1 or Gpt1) mRNA” value (transaminase mRNA levels) was “increased mRNA levels” and the “alanine transaminase 2 (Alt2 or Gpt2) mRNA” value (transaminase mRNA levels) was “no effect”. The “aspartate transaminase 1 (Ast1 or Got1) mRNA” value (transaminase mRNA levels) was “increased mRNA levels”, the “aspartate transaminase 2 (Ast2 or Got2) mRNA” value (transaminase mRNA levels) was “reduced mRNA levels” and the “average clinical dermatitis scores over time” value [5] was “statistically significant improvement in the scores”. For the same compound, the “increase in the corrected QT interval (average)” value (cynomolgus monkeys; 100 mg/kg oral, not considered related to treatment) was 1.6%, the “effects on cardiovascular function” value (cynomolgus monkeys; doses up to and including 100 mg/kg oral) was “no effects on cardiovascular function” and the “aqueous humor protein concentration” value (ocular inflammation) was “reduction in aqueous humor protein similar to that of the highest concentration of any of the other reference compounds”. For the same compound, the IC50 [6] was 5 to 10 nM, the “TNFα in BALF” value ([7]; 10 mg/kg) was “Significant reductions” and the “IL-12p40, TNFα, and RANTES in BALF” value ([7]; 30 mg/kg) was “significant reductions”. The “lung NQO1 enzyme activity and total GSH” value ([7]; 10 and 30 mg/kg) was “significant induction of NQO1 enzyme activity and increases in total GSH”, the “eye tissues with the highest concentrations” value ([8]; ocular topical administration) was “cornea, retina, or iris” and the “plasma concentrations after oral vs topical ocular administration” value ([8]; once per day for 5 days) was ~100 fold. The IC50 (RAW264.7 cells) was 125 nM and the basic pulmonary endpoints (CD rats) was “did not produce any adverse effects”.

— patent publication US11873320B2 (REATA PHARMACEUTICALS HOLDINGS, LLC, priority 2013, dated 2024)
